In one assay the test system is primary cortical neurons. The assay can be described thus: Neurite outgrowth assay. Type of assay: cell-based, Sprague-Dawley rat. To be noted: Primary cortical neuron, rat primary cortical neurons, 72 hours. How it is done: Neurite outgrowth assay was performed by Fluofarma (Pessac, France). Primary cortical neurons were harvested from E19 Sprague-Dawley (Janvier Labs) rat embryos, dissociated and plated at 10,000 per well in a tissue-culture treated 96 well plate, in neuronal medium (SM2 matrix independent growth medium, Stem Cell Technologies). Neurons were followed by phase contrast imaging with 1 image acquired every 4 hours, using an Incucyte Zoom (Essen BioScience) with a 20x objective. Four fields per well were acquired. After 24 hours, cells were treated with test compounds and neurite outgrowth was followed for 72 hours post-treatment. All measures were performed in triplicate in one experiment.
Neurite outgrowth kinetics were analyzed from each phase contrast image using the Neurotrack module of the Incucyte Zoom platform. Neurite length and branch points were obtained for each time point. The area under the curve (AUC) was calculated in each experimental condition (GraphPad Prism 6, GraphPad Software).

The test system of another assay is tubulin. The assay can be described thus: Fluorescence-based tubulin polymerization assay. Type of assay: biochemical. To be noted: purified tubulin, fluorescent reporter, vs DMSO control. How it is done:
Tubulin polymerization in vitro was analyzed using the fluorescence-based tubulin polymerization assay (Cytoskeleton, Inc.), according to the manufacturer’s guidelines. Fluorescence was read on a SaFire II microplate reader (Tecan).

Where [1] appears, read: read-out: IC50 for branch point formation.
The mark [2] stands for this setting: read-out: IC50 for neurite length.

pIC50: −log10 of the molar value. Read-outs that look alike come from different tables or passages of the source.

In general, pIC50 refers to the negative decadic logarithm of the IC50, by convention in mol/L. Turning to `CC[C@]1(O)C[C@@H]2CN(CCc3c([nH]c4ccccc34)[C@@](C(=O)OC)(c3cc4c(cc3OC)N(C)[C@H]3[C@@](O)(C(=O)OC)[C@H](OC(C)=O)[C@]5(CC)C=CCN6CC[C@]43[C@@H]65)C2)C1` [vinblastine, reference compound], the pIC50 is 9.15 in the assay on primary cortical neurons (setting [1]) and 9.05 in the assay with primary cortical neurons (setting [2]). Further, the “effect on tubulin polymerization in vitro” value in the assay with tubulin was “marked decrease in final polymer formation”.
Turning to `CC[C@]1(O)C[C@H]2CN(CCc3c([nH]c4ccccc34)[C@@](C(=O)OC)(c3cc4c(cc3OC)N(C=O)[C@H]3[C@@](O)(C(=O)OC)[C@H](OC(C)=O)[C@]5(CC)C=CCN6CC[C@]43[C@@H]65)C2)C1` [vincristine, reference compound], the pIC50 with primary cortical neurons (setting [1]) and with primary cortical neurons (setting [2]) was 9.70 throughout.
